In ChEMBL document CHEMBL1144124, “New cytotoxic 1-azaanthraquinones and 3-aminonaphthoquinone from the stem bark of Goniothalamus marcanii” (1999):

Columns and labels:
Format in all cases: functional
A549 = assay: Cytotoxicity against human A549 cells after 48 hrs by SRB assay; conditions: A549, 48 h, read-out: ED50 (the source's name)
MCF7 = assay: Cytotoxicity against human MCF7 cells after 48 hrs by SRB assay; conditions: MCF7, 48 h, read-out: ED50 (the source's name)
[1] = Cytotoxicity against human RPMI cells after 48 hrs by SRB assay; conditions: read-out: ED50 (the source's name)
U-251 = assay: Cytotoxicity against human U251 cells after 48 hrs by SRB assay; conditions: U-251, 48 h, read-out: ED50 (the source's name)
HT-29 = assay: Cytotoxicity against human HT-29 cells after 48 hrs by SRB assay; conditions: HT-29, 48 h, read-out: ED50 (the source's name)

Structure (SMILES)	EC50 (A549) [nM]	EC50 (MCF7) [nM]	EC50 [1] [nM]	EC50 (U-251) [nM]	EC50 (HT-29) [nM]
CC(=O)C1=C(N)C(=O)c2c(O)cccc2C1=O	2600	2600	3030	3030	–
COc1c(C)c2c([nH]c1=O)C(=O)c1ccccc1C2=O [DIELSIQUINONE]	110	110	110	370	1120
Cc1cc(=O)[nH]c2c1C(=O)c1ccccc1C2=O [MARCANIN A]	420	420	420	840	420
COc1c(C)c2c(n(C)c1=O)C(=O)c1ccccc1C2=O [MARCANIN B]	350	180	700	1400	2120
COc1c(CO)c2c(n(C)c1=O)C(=O)c1ccccc1C2=O [MARCANINE C]	1000	1000	670	–	330
COc1c(C)c2c([nH]c1=O)C(=O)c1cccc(O)c1C2=O [MARCANINE D]	40	80	80	280	350
